Test results taken from US9233979B2, “Compounds that are ERK inhibitors” (Merck Sharp & Dohme Corp., priority 2012, dated 2016).
Where two headings read alike, the source gives them in different places.

Target: phosphorylated active hERK2 enzyme (Homo sapiens (Human), UniProt P28482)
Experiment: Active Human ERK2 (hERK2) Activity Assay (IMAP-FP)
Type: biochemical
Settings: 10 point titration, read-out: AERK2 IC50
Procedure, shortened: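 IMAP detection beads in buffer with 24 mM NaCl stopped the reaction, and fluorescence polarization was read after 60 min binding.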

[1] = Table 6, 0.5 nM hERK2, 30 μM ATP

Sequence of phosphorylated active hERK2 enzyme (P28482 whole entry): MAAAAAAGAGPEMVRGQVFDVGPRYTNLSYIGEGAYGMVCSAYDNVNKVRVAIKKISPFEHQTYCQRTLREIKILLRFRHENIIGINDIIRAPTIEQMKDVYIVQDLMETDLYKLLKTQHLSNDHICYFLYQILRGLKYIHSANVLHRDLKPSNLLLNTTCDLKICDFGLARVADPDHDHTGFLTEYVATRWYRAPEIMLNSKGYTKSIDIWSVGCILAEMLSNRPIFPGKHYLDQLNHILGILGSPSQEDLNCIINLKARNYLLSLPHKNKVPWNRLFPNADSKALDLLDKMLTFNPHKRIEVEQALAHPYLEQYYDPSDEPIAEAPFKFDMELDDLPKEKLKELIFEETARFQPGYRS

Question: With COC[C@@H](NC(=O)Nc1cc2[nH]nc(N3CC4CCC(C3)O4)c2cn1)c1ccccc1 [Example 441, 1-[(1S)-2-methoxy-1-phenylethyl]-3-[3-(8-oxa-3-azabicyclo[3.2.1]-oct-3-yl)-1H-pyrazolo[4,3-c]-pyridin-6-yl]urea] as the compound, how does the IC50 [1] read?
Answer: 0.9 nM

Question: Which IC50 [1] does the source give for COC(=O)Nc1n[nH]c2cc(NC(=O)N[C@H](C)c3ccc(Cl)nc3)ncc12 [Example 311, methyl [6-({[(1R)-1-(6-chloropyridin-3-yl)ethyl]-carbamoyl}amino)-1H-pyrazolo[4,3-c]pyridin-3-yl]-carbamate] here?
Answer: 19.1 nM

Question: With COC[C@@H](NC(=O)Nc1cc2[nH]nc(N3CCOCC3C)c2cn1)c1ccccc1 (stereo partly drawn) [Example 27, 1-[(1S)-2-methoxy-1-phenylethyl]-3-[3-(3-methylmorpholin-4-yl)-1H-pyrazolo[4,3-c]pyridin-6-yl]urea] as the compound, how does the IC50 (Table 5, 0.5 nM hERK2, 30 μM ATP) read?
Answer: 1.2 nM

Question: With CN(C)C[C@H](NC(=O)Nc1cc2[nH]nc(N)c2cn1)c1ccccc1 [Example 263, 1-(3-amino-1H-pyrazolo[4,3-c]-pyridin-6-yl)-3-[(1R)-2-(dimethylamino)-1-phenylethyl]urea] as the compound, how does the IC50 [1] read?
Answer: 127 nM

Question: How did the IC50 [1] turn out when C[C@@H](O)[C@@H](NC(=O)Nc1cc2[nH]nc(N3CCOCC3)c2cn1)c1ccc(F)cc1 [Example 97, 1-[(1S,2R)-1-(4-fluorophenyl)-2-hydroxypropyl]-3-(3-morpholin-4-yl-1H-pyrazolo[4,3-c]-pyridin-6-yl)urea] was run?
Answer: 0.2 nM

Question: Which IC50 [1] does the source give for Nc1n[nH]c2cc(NC(=O)NCc3cccc(F)c3)ncc12 [Example 265, 1-(3-amino-1H-pyrazolo[4,3-c]-pyridin-6-yl)-3-(3-fluorobenzyl)urea] here?
Answer: 24.5 nM

Question: With Nc1n[nH]c2cc(NC(=O)NCc3ccc(F)c(Cl)c3)ncc12 [Example 264, 1-(3-amino-1H-pyrazolo[4,3-c]-pyridin-6-yl)-3-(3-chloro-4-fluorobenzyl)urea] as the compound, how does the IC50 [1] read?
Answer: 940 nM

Question: How did the IC50 [1] turn out when COC(=O)Nc1n[nH]c2cc(NC(=O)NC(C)c3ccc(F)c(F)c3)ncc12 (centres unmarked) [Example 303, methyl [6-({[1-(3,4-difluoro-phenyl)ethyl]-carbamoyl}amino)-1H-pyrazolo[4,3-c]pyridin-3-yl]-carbamate] was run?
Answer: 3.1 nM

Question: With CC(C)CNc1n[nH]c2cc(NC(=O)N[C@H](C)c3ccccc3)ncc12 [Example 189, 1-{3-[(2-methylpropyl)-amino]-1H-pyrazolo[4,3-c]-pyridin-6-yl}-3-[(1R)-1-phenylethyl]urea] as the compound, how does the IC50 [1] read?
Answer: 1.7 nM

Question: CC(C)COC(=O)Nc1n[nH]c2cc(NC(=O)N[C@H](C)c3ccccc3)ncc12 [Example 219, 2-methylpropyl [6-({[(1R)-1-phenylethyl}-carbamoyl}amino)-1H-pyrazolo[4,3-c]pyridin-3-yl]-carbamate] was tested. Which IC50 [1] did it give?
Answer: 32.5 nM

Question: Which IC50 [1] does the source give for C[C@@H](NC(=O)Nc1cc2[nH]nc(NC3CC3)c2cn1)c1ccccc1 [Example 330, 1-[3-(cyclopropyl-amino)-1H-pyrazolo[4,3-c]pyridin-6-yl]-3-[(1R)-1-phenylethyl]urea] here?
Answer: 0.9 nM

Question: With CCNc1n[nH]c2cc(NC(=O)N[C@H](C)C3CCCCC3)ncc12 [Example 230, 1-[(1R)-1-cyclohexylethyl]-3-[3-(ethylamino)-1H-pyrazolo[4,3-c]pyridin-6-yl]urea] as the compound, how does the IC50 [1] read?
Answer: 11.7 nM

Question: With CCOc1ncccc1CNC(=O)Nc1cc2[nH]nc(N)c2cn1 [Example 262, 1-(3-amino-1H-pyrazolo[4,3-c]pyridin-6-yl)-3-[(2-ethoxypyridin-3-yl)methyl]urea] as the compound, how does the IC50 [1] read?
Answer: 20.7 nM

Question: Which IC50 [1] does the source give for C[C@@H](NC(=O)Nc1cc2[nH]nc(NC(=O)C(C)(C)C)c2cn1)c1ccccc1 [Example 215, 2,2-dimethyl-N-[6-({[(1R)-1-phenylethyl]-carbamoyl}amino)-1H-pyrazolo[4,3-c]pyridin-3-yl]-propanamide] here?
Answer: 3.9 nM

Question: For CC1CC(Nc2n[nH]c3cc(NC(=O)N[C@H](C)c4ccccc4)ncc23)C(C)O1 (stereo partly drawn) [Example 78, 1-(3-((2,5-dimethyltetrahydro-furan-3-yl)amino)-1H-pyrazolo[4,3-c]-pyridin-6-yl)-3-((R)-1-phenylethyl)urea], which IC50 [1] is on record?
Answer: 7.4 nM

Question: Which IC50 [1] does the source give for CC(C)(O)[C@@H](NC(=O)Nc1cc2[nH]nc(N3CCC(F)(F)CC3)c2cn1)c1ccccc1 [Example 366, 1-[3-(4,4-difluoropiperidin-1-yl)-1H-pyrazolo[4,3-c]pyridin-6-yl]-3-[(1S)-2-hydroxy-2-methyl-1-phenylpropyl]urea] here?
Answer: 0.4 nM

Question: For CCNc1n[nH]c2cc(NC(=O)NC(CC)c3ccccn3)ncc12 (centres unmarked) [Example 320, 1-(3-(ethylamino)-1H-pyrazolo[4,3-c]pyridin-6-yl)-3-(1-(pyridin-2-yl)propyl)urea], which IC50 [1] is on record?
Answer: 33 nM
